Data as given in ChEMBL document CHEMBL6103655, “Structure and Synthesis of Amatyemides A and B, Cyclic Octadepsipeptides from South African Stromatolites” (2025).
Calls of active or inactive are those of the source. No cut-off for these calls is given here.

Assays:
HCT-116 = assay: Cytotoxicity against human HCT-116 cells incubated for 72 hrs by CellTiter-Glo assay; format: functional
SH-SY5Y = assay: Cytotoxicity against human SH-SY5Y cells assessed as reduction in cell viability at 10 uM incubated for 72 hrs by CellTiter-Glo assay; format: functional
U-87 MG [1] = assay: Induction of oxidative stress in human U-87 MG cells assessed as reduction in GLuc expression at 3 to 6 uM incubated for 18 hrs in the presence of NAC; format: functional, cell-based; conditions: U-87MG ATCC, dose 3-6 µM
U-87 MG [2] = assay: Induction of oxidative stress in human U-87 MG cells assessed as reduction in GLuc expression at 3 to 6 uM incubated for 18 hrs; format: functional, cell-based; conditions: U-87MG ATCC, dose 3-6 µM
U-87 MG [3] = assay: Induction of oxidative stress in human U-87 MG cells cultured with GLuc assessed as change in cell viability at 3 to 6 uM incubated for 18 hrs by CellTiter-Glo luminescent assay; format: functional, cell-based; conditions: U-87MG ATCC, dose 3-6 µM
Acinetobacter baumannii = assay: Antimicrobial activity against Acinetobacter baumannii ATCC BAA-1605 at 0.14 mg/mL in broth medium incubated for 14 to 16 hrs by Synergy4 plate reader analysis; format: functional, organism-based; conditions: time 14-16 hrs
Pseudomonas aeruginosa = assay: Antimicrobial activity against Pseudomonas aeruginosa ATCC […] at 0.14 mg/mL in broth medium incubated for 14 to 16 hrs by Synergy4 plate reader analysis; format: functional, organism-based; conditions: time 14-16 hrs
Klebsiella pneumoniae = assay: Antimicrobial activity against Klebsiella pneumoniae ATCC BAA-2344 at 0.14 mg/mL in broth medium incubated for 14 to 16 hrs by Synergy4 plate reader analysis; format: functional, organism-based; conditions: time 14-16 hrs
Escherichia coli = assay: Antimicrobial activity against Escherichia coli ATCC BAA-2523 at 0.14 mg/mL in broth medium incubated for 14 to 16 hrs by Synergy4 plate reader analysis; format: functional, organism-based; conditions: time 14-16 hrs
Staphylococcus aureus = assay: Antimicrobial activity against Staphylococcus aureus subsp. aureus ATCC 700698 at 0.14 mg/mL in broth medium incubated for 14 to 16 hrs by Synergy4 plate reader analysis; format: functional, organism-based; conditions: time 14-16 hrs
Enterococcus faecium = assay: Antimicrobial activity against Enterococcus faecium ATCC BAA-2317 at 0.14 mg/mL in broth medium incubated for 14 to 16 hrs by Synergy4 plate reader analysis; format: functional, organism-based; conditions: time 14-16 hrs
Candida albicans = assay: Antimicrobial activity against Candida albicans ATCC MYA-574 at 0.14 mg/mL in broth medium incubated for 14 to 16 hrs by Synergy4 plate reader analysis; format: functional, organism-based; conditions: time 14-16 hrs
Cryptococcus neoformans = assay: Antimicrobial activity against Cryptococcus neoformans var. grubii ATCC 90112 at 0.14 mg/mL in broth medium incubated for 14 to 16 hrs by Synergy4 plate reader analysis; format: functional, organism-based; conditions: time 14-16 hrs

| Compound | CC50 (HCT-116) | Activity (SH-SY5Y) | Activity (U-87 MG [1]) | Activity (U-87 MG [2]) | Activity (U-87 MG [3]) | Activity (Acinetobacter baumannii) | Activity (Pseudomonas aeruginosa) | Activity (Klebsiella pneumoniae) | Activity (Escherichia coli) | Activity (Staphylococcus aureus) | Activity (Enterococcus faecium) | Activity (Candida albicans) | Activity (Cryptococcus neoformans) |
| --- | --- | --- | --- | --- | --- | --- | --- | --- | --- | --- | --- | --- | --- |
| CCCCCCCC[C@H]1OC(=O)[C@H](CC(C)C)N(C)C(=O)[C@H](C(C)C)NC(=O)[C@@H](Cc2ccccc2)NC(=O)[C@H]([C@@H](C)CC)OC(=O)[C@H]([C@@H](C)OC)NC(=O)[C@H](C)NC(=O)[C@H](CC(C)C)NC1=O (stereo in doubt; 2a) [listing 1 of 2 here] | 1750 nM | ~50% | – | – | – | – | – | – | – | – | – | – | – |
| CCCCCCCC[C@H]1OC(=O)[C@H](CC(C)C)N(C)C(=O)[C@H](C(C)C)NC(=O)[C@@H](Cc2ccccc2)NC(=O)[C@H]([C@@H](C)CC)OC(=O)[C@H]([C@@H](C)OC)NC(=O)[C@H](C)NC(=O)[C@H](CC(C)C)NC1=O (stereo in doubt; 2a) [listing 2 of 2 here] | – | – | inactive | – | – | – | – | – | – | – | – | – | – |
| C=C(C)[C@H]1Cc2c(ccc3c2O[C@@H]2COc4cc(OC)c(OC)cc4[C@@H]2C3=O)O1 | – | – | inactive | – | – | – | – | – | – | – | – | – | – |
| COc1ccc(C[C@H](NC(=O)/C(C)=C/[C@H]2CSC([C@@H](C)[C@@H](O)C[C@H](C)C[C@H](O)C(C)(C)C)=N2)C(=O)N(C)[C@@H](C)C(=O)N(C)[C@@H]2C(=O)N3CCC[C@H]3C(=O)OC(C)[C@@H]2C)cc1 (some centres undefined) | – | – | Active | – | – | – | – | – | – | – | – | – | – |
| CCCCCCCCCC[C@H]1OC(=O)[C@H](CC(C)C)N(C)C(=O)[C@H](C(C)C)NC(=O)[C@@H](Cc2ccccc2)NC(=O)[C@H]([C@@H](C)CC)OC(=O)[C@H]([C@@H](C)OC)NC(=O)[C@H](C)NC(=O)[C@H](CC(C)C)NC1=O | 3290 nM | inactive | inactive | inactive | inactive | inactive | inactive | inactive | inactive | inactive | inactive | inactive | inactive |
| CCCCCCCC[C@H]1OC(=O)[C@H](CC(C)C)N(C)C(=O)[C@H](C(C)C)NC(=O)[C@@H](Cc2ccccc2)NC(=O)[C@H]([C@@H](C)CC)OC(=O)[C@H]([C@@H](C)OC)NC(=O)[C@H](C)NC(=O)[C@H](CC(C)C)NC1=O (stereo in doubt; 2) | – | – | inactive | Active | inactive | inactive | inactive | inactive | inactive | inactive | inactive | inactive | inactive |
